Assay in all cases: relative viability (nuclei count vs DMSO), 5 days (fraction); higher = more cells survive
Compound in experiment [1]: CC[C@@H](C)CNCC(=O)N1CCC2=C([C@@H]1COC3=CC=CC(=C3)C)C=CS2 [RU-SKI 43] + CC1(C)CCC(c2ccc(Cl)cc2)=C(CN2CCN(c3ccc(C(=O)NS(=O)(=O)c4ccc(N[C@H](CCN5CCOCC5)CSc5ccccc5)c(S(=O)(=O)C(F)(F)F)c4)cc3)CC2)C1 [Navitoclax] (partner 0.5 µM)
Summed up: (§1)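 Relative viability divides the nuclei count in treated wells by that in vehicle wells. Lung cancer cell lines were seeded in 1536-well plates, dosed by pin tool the next day, and fixed and stained after 5 days in one step with final 0.05% Triton X-100, 1% formaldehyde and 1 ug/ml Hoechst. Dosing was a single drug or a fixed anchor-drug dose plus five library-drug doses (not always all listed) in √10 steps, and values are medians of duplicate plates imaged at 4×.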

Compound in experiment [2]: Cn1cc(-c2cnc3ccc4ccc(CS(=O)(=O)NCc5ccccn5)cc4c(=O)c3c2)cn1 [MK-8033] + CC1(C)CCC(c2ccc(Cl)cc2)=C(CN2CCN(c3ccc(C(=O)NS(=O)(=O)c4ccc(N[C@H](CCN5CCOCC5)CSc5ccccc5)c(S(=O)(=O)C(F)(F)F)c4)cc3)CC2)C1 [Navitoclax] (partner 0.5 µM)
The method, boiled down: as §1

Compound in experiment [3]: Cn1cc(-c2cnc3ccc4ccc(CS(=O)(=O)NCc5ccccn5)cc4c(=O)c3c2)cn1 [MK-8033] + Cc1nc(NC(=O)N2CCC[C@H]2C(N)=O)sc1-c1ccnc(C(C)(C)C(F)(F)F)c1 [Alpelisib] (partner 2 µM)
The method, boiled down: as §1

Compound in experiment [4]: Cn1cc(-c2cnc3ccc4ccc(CS(=O)(=O)NCc5ccccn5)cc4c(=O)c3c2)cn1 [MK-8033] + Cc1cc(Nc2cc(N3CCN(C)CC3)nc(Sc3ccc(NC(=O)C4CC4)cc3)n2)n[nH]1 [Tozasertib] (partner 0.1 µM)
The method, boiled down:
as §1

For the cell line NCI-H1666, the relative viability in experiment [1] (first compound 0.1 µM) was 0.9; in experiment [1] (first compound 0.3162 µM) it was 1.08; in experiment [1] (first compound 1 µM) it was 0.888; in experiment [1] (first compound 3.162 µM) it was 0.852; in experiment [1] (first compound 10 µM) it was 0.848; in experiment [2] (first compound 0.02 µM) it was 0.959. Also, the relative viability in experiment [2] (first compound 0.06325 µM) is 0.852; in experiment [2] (first compound 0.2 µM), 0.951; in experiment [2] (first compound 0.6325 µM) it was 1.1; in experiment [2] (first compound 2 µM), 0.924; in experiment [3] (first compound 0.02 µM), 0.937; in experiment [3] (first compound 0.06325 µM), 1.01. For the same cell line, the relative viability in experiment [3] (first compound 0.2 µM) turned out to be 0.874; in experiment [3] (first compound 0.6325 µM), 0.998; in experiment [3] (first compound 2 µM), 0.942; in experiment [4] (first compound 0.02 µM), 0.588; in experiment [4] (first compound 0.06325 µM), 0.587; in experiment [4] (first compound 0.2 µM), 0.589. Moreover, the values for the relative viability in experiment [4] (first compound 0.6325 µM) and in experiment [4] (first compound 2 µM) were 0.648 and 0.614, respectively.

Take NCI-H1734: the relative viability was 0.867 in experiment [1] (first compound 0.1 µM); 1.49 in experiment [1] (first compound 0.3162 µM); 0.911 in experiment [1] (first compound 1 µM); 0.899 in experiment [1] (first compound 3.162 µM); 0.803 in experiment [1] (first compound 10 µM); 0.811 in experiment [2] (first compound 0.02 µM). Also, the relative viability turned out to be 0.818 in experiment [2] (first compound 0.06325 µM); 0.763 in experiment [2] (first compound 0.2 µM); 0.878 in experiment [2] (first compound 0.6325 µM); 0.837 in experiment [2] (first compound 2 µM); 0.628 in experiment [3] (first compound 0.02 µM); 0.57 in experiment [3] (first compound 0.06325 µM). Further, the relative viability in experiment [3] (first compound 0.2 µM) came out at 0.644; in experiment [3] (first compound 0.6325 µM), 0.654; in experiment [3] (first compound 2 µM), 0.72; in experiment [4] (first compound 0.02 µM), 0.243; in experiment [4] (first compound 0.06325 µM), 0.215; in experiment [4] (first compound 0.2 µM), 0.3. Besides, the relative viability in experiment [4] (first compound 0.6325 µM) came out at 0.261; in experiment [4] (first compound 2 µM), 0.242.

With NCI-H1755, the relative viability in experiment [1] (first compound 0.1 µM) amounted to 1.04; in experiment [1] (first compound 0.3162 µM), 1.14; in experiment [1] (first compound 1 µM), 1.06; in experiment [1] (first compound 3.162 µM), 1.06; in experiment [1] (first compound 10 µM), 1.05; in experiment [2] (first compound 0.02 µM), 0.829. The relative viability in experiment [2] (first compound 0.06325 µM) came out at 0.988; in experiment [2] (first compound 0.2 µM), 0.983; in experiment [2] (first compound 0.6325 µM) it was 1.01; in experiment [2] (first compound 2 µM), 0.966; in experiment [3] (first compound 0.02 µM) it was 0.931; in experiment [3] (first compound 0.06325 µM), 0.883. Further, the relative viability in experiment [3] (first compound 0.2 µM) was determined as 0.857; in experiment [3] (first compound 0.6325 µM) it was 0.909; in experiment [3] (first compound 2 µM), 0.849; in experiment [4] (first compound 0.02 µM), 0.552; in experiment [4] (first compound 0.06325 µM) it was 0.473; in experiment [4] (first compound 0.2 µM), 0.536. Further, the relative viability turned out to be 0.537 in experiment [4] (first compound 0.6325 µM) and 0.536 in experiment [4] (first compound 2 µM).

Take NCI-H1793: the relative viability in experiment [1] (first compound 0.1 µM) is 0.458; in experiment [1] (first compound 0.3162 µM) it was 0.417; in experiment [1] (first compound 1 µM), 0.425; in experiment [1] (first compound 3.162 µM), 0.511; in experiment [1] (first compound 10 µM), 0.318; in experiment [2] (first compound 0.02 µM), 0.454. Besides, the relative viability in experiment [2] (first compound 0.2 µM) came out at 0.291; in experiment [2] (first compound 0.6325 µM), 0.38; in experiment [2] (first compound 2 µM), 0.508; in experiment [3] (first compound 0.02 µM) it was 0.608; in experiment [3] (first compound 0.2 µM), 0.54; in experiment [3] (first compound 0.6325 µM) it was 0.603. Also, the relative viability in experiment [3] (first compound 2 µM) came out at 0.816; in experiment [4] (first compound 0.02 µM) it was 0.332; in experiment [4] (first compound 0.06325 µM) it was 0.325; in experiment [4] (first compound 0.2 µM), 0.34; in experiment [4] (first compound 0.6325 µM) it was 0.416; in experiment [4] (first compound 2 µM), 0.23.

The values are drawn from the supplement of paper PMC10307832.
